Values joined by “and” are separate entries in the source; they are usually repeats but may differ in a detail not shown here. Equal values may be shown once.
How the values were obtained:
[1] = Purity by HPLC of melphalan lyophilizates vs. their API (degradation on lyophilization)
Protocol: Purity determinations of melphalan in its different compositions were analyzed by HPLC applying the method Pharmaeuropa, Vol 21, No. 3, July 2009, pages 425-28, for the following examples:
(§1) Simultaneously, the melphalan solution was filtered and measured in doses to 10 mg/ml in glacial acetic acid with 3 moles of hydrochloric acid from hydrochloric acid at 37% w/we, which used base melphalan Lot 20-01-2010, in 5 ml vials of the tube flask type, 20 mm mouth, containing 2 ml solution, and it was lyophilized in a Virtis Advantage Lyophilizer, freezing at −50° C. for 5 hours, starting vacuum at the same temperature, then bringing the shelf to −20° C., then to 0° C. and finally drying at 5° C., with a final vacuum of 25 microbars.
as §1, with “acid,” for “acid with 3 moles of hydrochloric acid from hydrochloric acid at 37% w/we,”, “25°” for “5°”

[2] = Solubility of melphalan in pharmaceutical organic solvents; type: physicochemical; settings: for Solubility in DMSO: hydrochlorate prepared by addition of three moles of hydrochloric acid at 37%
Protocol: To investigate the possibility of elaborating malphalan lyophilizates from pharmaceutical organic solvents, it was determined that base melphalan as well as its hydrochlorate are not soluble in terbutylic alcohol. Instead, even though base malphalan is not soluble in DMSO, its hydrochlorate is soluble up to close to 10% p/v, prepared by the addition of three moles of hydrochloric acid as a concentrated acid at 37%.
Base melphalan is soluble in glacial acetic acid, preferably free of acetic anhydride, in up to close to 10% p/v; likewise as melphalan hydrochlorate, mixtures of acetic acid and aqueous solution of hydrochloric acid at 37% p/p to dissolve base melphalan may also be used, or else hydrogen chloride solution in glacial acetic acid.

[3] = Stability at 25° C. of melphalan solution at 10 mg/ml in glacial acetic acid, purity by HPLC; type: physicochemical
Protocol: To study stability at 25° C. of a melphalan solution at 10 mg/ml in glacial acetic acid in the absence of hydrochloric acid, 830 mg base melphalan Lot 20-01-2010 were used and the results of the following table were obtained. This solution is not comprised in the present invention, it is only introduced with the aim of comparing this option without hydrochloric acid presenting higher concentration of impurities than the composition of lyophilized melphalan on the invention.

[4] = cited from earlier work
[5] = pH of lyophilized melphalan after reconstitution, dilution in normal saline solution and neutralization with trisodium citrate; type: physicochemical; settings: 5 mg/ml of melphalan hydrochlorate with 2.5 molecules of hydrogen chloride per melphalan mol
Protocol: (§2) A vial containing the solid composition of lyophilized melphalan was reconstituted with 3.2 ml of normal saline solution, producing a melphalan solution at 5.40 mg/ml of pH 1.80. An aliquot of 0.8 ml was taken and added with another of 4.2 ml of normal saline solution, producing 0.86 mg/ml of pH 2.33. It was neutralized with 0.20 ml of a solution of 100 mg/ml of trisodium citrate dihydrate, producing a final pH 5.44.
as §2, with “6.84” for “5.40”, “2.20.” for “1.80.”, “1.09” for “0.86”, “2.20.” for “2.33.”, “of 5.59.” for “5.44.”

[6] = API or lyophilizate, listed as API
[7] = API or lyophilizate, listed as API-Mel 143-09
[8] = API before dissolution, listed as API

N[C@@H](Cc1ccc(N(CCCl)CCCl)cc1)C(=O)O [Melphalan, p-(bis-2-chloroethyl)-amino-L-phenylalanine]
Impurity C ([1]; API or lyophilizate): <0.05 % w/w | Impurity F ([1]; API or lyophilizate): <0.05 % w/w | Impurity I ([1]; API or lyophilizate): <0.05 % w/w | Impurity D [1, 6]: 0.05% w/w and <0.05 % w/w | Impurity G [1, 6]: 1.04% w/w and 0.97% w/w | Impurity J [1, 6]: 0.05% w/w and <0.05 % w/w | Máx. Imp. Dispos [1, 6]: 0.05% w/w and 0.07% w/w | Total of Impurities [1, 6]: 1.19% w/w and 1.04% w/w | Impurity D [1, 7]: 0.1 % w/w | Impurity G [1, 7]: 0.9 % w/w | Máx. Imp. Dispos [1, 7]: 0.1 % w/w | Total of Impurities [1, 7]: 1.2 % w/w | Degradation of the API on non-aqueous lyophilization ([1]; from acetic acid with three moles of hydrochloric acid per mol): lower than 0.2 % in area | Solubility in terbutylic alcohol [2]: not soluble | Solubility in DMSO ([2]; listed as base malphalan): not soluble | Solubility in glacial acetic acid ([2]; preferably free of acetic anhydride): ~10 % p/v | Impurity C ([3]; API before dissolution): 0.02 % of area | Impurity D ([3]; API before dissolution): 0.09 % of area | Impurity F ([3]; API before dissolution): 0.05 % of area | Impurity G ([3]; API before dissolution): 2.05 % of area | Impurity I ([3]; API before dissolution): 0.03 % of area | Impurity J ([3]; API before dissolution): 0.11 % of area | Melphalan Purity ([3]; API before dissolution): 97.45 % of area | Total of Impurities ([3]; API before dissolution): 2.55 % of area | Max. Imp. Disposab [3, 8]: 0.02 (TRR 0.81) % of area and 0.04 % of area | Other Imp. Disposab [3, 8]: 0.04 (TRR 1.58) % of area and 0.02 % of area | Stability in solution of 10 mg/ml in acetic acid by HPLC ([3]; hours in solution at ambient temperature / 25° C.): perfectly stable

CC(O)CO (stereo not shown) [propylene glycol]
Half plasma life ([4]; individuals with normal renal function): 5 h | Excreted by kidneys ([4]; rest metabolized by the liver): 12-45%

N[C@@H](Cc1ccc(N(CCCl)CCCl)cc1)C(=O)O [melphalan hydrochlorate]
pH of an aqueous solution [5]: approximately 1.9 | Solubility in DMSO ([2]; listed as its hydrochlorate): ~10 % p/v
